Measurements published in patent publication US4208424A, “Lipogenesis inhibition by certain esters of substituted benzodioxincarboxylic acids” (Shell Oil Company, priority 1979, dated 1980).

tested on: lipogenesis in swine adipose tissue; test: inhibition of lipogenesis (incorporation of radioactive glucose carbon into lipid) in swine adipose tissue slices; type: cell-based; details: 100 micrograms per milliliter, 37° C., 2 hours, glucose-U^14 C, insulin, 5% DMSO, triplicate
Source text: The manner in which they cause this effect is not known with certainty; it is believed that they interfere with the synthesis of fatty acids in the tissues. Their effectiveness for this purpose has been ascertained by immersing samples of swine adipose tissue in a liquid medium containing radioactive glucose and the test chemical for a period of time, then isolating the lipid from the treated tissue and determining the incorporation of the radioactive carbon into lipid by means of scintillation counting techniques. These tests were conducted in swine adipose tissues because in swine, the primary site of lipogenesis--i.e., fatty acid synthesis--appears to be adipose tissue.
Described in more detail, the tests were conducted according to the following general procedure:
150 milligrams of slices of swine adipose tissue were incubated at 37° C. for 2 hours with shaking in 3 milliliters of Krebs-Ringer bicarbonate solution containing one-half the normal calcium ion concentration, 60 micromoles of glucose, 0.5 micro-Curie of glucose-U^14 C, and 300 microunits of insulin, and 5% dimethyl sulfoxide (DMSO). The test compounds were added as a solution or suspension in DMSO and were present at a concentration of 100 micrograms per milliliter of the incubation mixture.
The incubation was terminated by addition of 0.25 milliliter of 1 N sulfuric acid. The resulting mixture was extracted with a total of 25 milliliters of chloroform/methanol (2:1 v/v). The extracts were washed according to Folch et al. (J. Biol. Chem. 226, 497-509, (1957)), air dried, and counted in a liquid scintillation counter with 15 m milliliters of counting fluid (two parts toluene containing 0.4% w/v New England Nuclear Omnifluor/1 part Triton X-100). The tests were conducted in triplicate and were accompanied by control tests in which all ingredients,proportions and conditions were the same except that no test compound was included. From the data obtained were calculated the percent inhibition of lipid synthesis by the test compounds in each case. The data obtained from the tests are set out in Table 1, as the percent inhibition of lipogenesis compared to the results obtained in the control tests wherein only the test compound was omitted.

With CCOC(=O)C1COc2ccccc2O1 (stereo not shown) [Compound 1, Ethyl 2,3-dihydro-1,4-benzodioxin-2-carboxylate] as the compound, how does the “Percent Inhibition (of lipogenesis compared to control tests)” value (“Percent Inhibition” for short) read?
Its value is 22%.

For CCOC(=O)C1COc2cc(C)c(C)cc2O1 (stereo not shown) [Compound 6, Ethyl 2,3-dihydro-6,7-dimethyl-1,4-benzodioxin-2-carboxylate], which “Percent Inhibition” value is on record?
The value was 29%.

CCOC(=O)C1COc2cc(-c3ccccc3)ccc2O1 (stereo not shown) [Compound 7, Ethyl 2,3-dihydro-6-phenyl-1,4-benzodioxin-2-carboxylate] was tested. Which “Percent Inhibition” value did it give?
Its value is 21%.

With CCOC(=O)C1COc2ccc(-c3ccccc3)cc2O1 (stereo not shown) [Compound 8, Ethyl 2,3-dihydro-7-phenyl-1,4-benzodioxin-2-carboxylate] as the compound, how does the “Percent Inhibition” value read?
Its value is 28%.

CCOC(=O)C1COc2ccc(C(C)O)cc2O1 (stereo not shown) [Compound 9, Ethyl 2,3-dihydro-7-(1-hydroxyethyl)-1,4-benzodioxin-2-carboxylate] was tested. Which “Percent Inhibition” value did it give?
Its value is 90%.

Which “Percent Inhibition” value does the source give for “Ethyl 2,3-dihydro-6(and 7)-fluoro-1,4-benzodioxin-2-carboxylate [Compound 3]” here?
The value was 48%.

Which “Percent Inhibition” value does the source give for “Ethyl 2,3-dihydro-6(and 7)-methoxy-1,4-benzodioxin-2-carboxylate [Compound 10]” here?
The value was 85%.

With “Ethyl 2,3-dihydro-6(and 7)-methyl-1,4-benzodioxin-2-carboxylate [Compound 2]” as the compound, how does the “Percent Inhibition” value read?
Its value is 30%.

With “Ethyl 2,3-dihydro-8(and 5)-methoxy-1,4-benzodioxin-2-carboxylate [Compound 5]” as the compound, how does the “Percent Inhibition” value read?
Its value is 86%.

Which “Percent Inhibition” value does the source give for “Ethyl 6(and 7)-bromo-2,3-dihydro-1,4-benzodioxin-2-carboxylate [Compound 4]” here?
The value was 43%.
